Measurements: PMC7269481, “ZN148 Is a Modular Synthetic Metallo-β-Lactamase Inhibitor That Reverses Carbapenem Resistance in Gram-Negative Pathogens In Vivo” (Antimicrobial Agents and Chemotherapy, 2020)

Key:
VIM-2 [1] = target: T1, VIM-2 (Escherichia coli, UniProt Q5U7L7); test: LC-ESI-MS of VIM-2 incubated with inhibitor; conditions: VIM-2 preincubated with 5 mM ZN148
T1 construct: made in house
Experimental: VIM-2 (8 μM final concentration) was incubated together without or with 5 mM ZN148 on ice for 30 min. Incubation was carried out in Chelex HEPES buffer (pH 7.5), and the inhibitors were diluted in Milli-Q water (Millipore/Merck) by a factor of 1,000,000 using centrifugal filters (10,000 Da; Merck). Liquid chromatography electrospray ionization Q-TOF mass spectrometry (LC-ESI-MS; Agilent Technologies, Santa Clara, CA) was performed in positive-ion mode using 0.1% formic acid in Milli-Q water and acetonitrile (VWR, Radnor, PA) at 0.4 ml/min. Spectra deconvolution was performed by using BioConfirm and MassHunter qualitative analysis (Agilent Technologies).

HepG2 cells = test: In vitro toxicity, alamarBlue viability; format: cell-based, human; conditions: Homo sapiens, HepG2, 24 h
Experimental: The human hepatoblastoma HepG2 cell line (HB-8065; ATCC, Manassas, VA) was cultured in DMEM-GlutaMAX (5.5 mM glucose; Thermo Fisher) supplemented with 10% fetal bovine serum (Sigma-Aldrich), streptomycin (100 μg/ml; Gibco/Thermo Fisher), and penicillin (100 U/ml; Gibco/Thermo Fisher) at 37°C in 5% CO2. For viability assays, cells were seeded in white 96-well Nunclon plates (Sigma-Aldrich) at a density of 20,000 cells/well and left overnight to adhere. ZN148 and TPA (Sigma-Aldrich, Darmstadt, Germany) dissolved in dimethyl sulfoxide (DMSO; (Sigma-Aldrich) were added to the white 96-well plates containing 20,000 HepG2 cells/well at concentrations ranging from 1 to 1 × 10^−3 mM (a DMSO concentration kept below 1%), followed by incubation for 24 h at 37°C in 5% CO2. After 24 h, alamarBlue cell viability reagent (Thermo Fisher, Carlsbad, CA) was added (10% final concentration), followed by incubation for 4 h at 37°C. The proportion of viable cells in each well was measured in a fluorescence plate reader (Clariostar; BMGlabtech, Germany) at excitation 550 nm/emission 603 nm ([56]). Data from eight replicates were fitted by nonlinear regression to determine IC50 values using Prism (GraphPad Software, Inc.).

VIM-2 [2] = target: T1, VIM-2; format: biochemical
Experimental: For reversibility of enzyme activity after incubation with ZN148, 3 ml of VIM-2 or NDM-1 was diluted with or without ZN148 in Chelex HEPES buffer (pH 7.5) and subsequently incubated for 1 h on ice. Then, 2.5 ml of each solution was loaded onto an equilibrated PD-10 column (GE Healthcare, Pittsburgh, PA), washed with 1 ml, and eluted with 1.5 ml of Chelex HEPES buffer (pH 7.5), respectively. Samples spiked and not spiked with inhibitor were diluted to a final enzyme concentration of 1 nM VIM-2 and 3 nM NDM-1. The initial reaction velocity was determined by adding nitrocefin (Merck) for VIM-2 or imipenem (Sigma-Aldrich) for NDM-1 at final concentrations of 50 and 100 μM, respectively. The initial enzyme reactions were recorded at 25°C. Inhibitor and enzyme alone were included as controls. All measurements were performed at least in duplicates. For enzyme restorability, pre- and postcolumn samples were supplemented with ZnSO4 (Sigma-Aldrich) to a final concentration of 100 μM and allowed to incubate for 5 min at 25°C. The initial enzyme velocity was then determined as described above.

CN(C[C@H](O)[C@@H](O)[C@H](O)[C@H](O)CO)C(=O)c1ccc(CN(Cc2ccccn2)Cc2ccccn2)nc1 [ZN148]
change in mass of VIM-2 (VIM-2 [1]): 46.2 ± 0.1 Da
IC50 (HepG2 cells): > 100 µM
mode of inhibition (VIM-2 [2]): irreversible
MBL activity restored by addition of exogenous zinc, compared to untreated control (VIM-2 [2]; after incubation with inhibitor and its removal (PD-10), 100 μM ZnSO4): ~30%
